Test results as given in patent US20260297098A1, “HETEROCYCLIC COMPOUNDS AS PARP1 INHIBITORS” (Synnovation Therapeutics, Inc., priority 2023, published 2026).

Target: T1, hydrogen peroxide-induced PARylation in HeLa cells (wide-type with PARP1 gene) (Homo sapiens, UniProt P09874)
T1 construct: H2O2-induced PARylation, In-Cell Western with anti-PAR antibody
Experiment: In-Cell Western measurement of PARylation in PARP1 WT (HeLa) cells
Assay type: cell-based
Conditions: 60 min compound pre-treatment, 10 mM hydrogen peroxide for 15 min, read-out: HeLa_WT_IC50
Source text: Example A. In-Cell Western Measurement of PARylation in PARP1 WT and Knockout Cells
The purpose of this cell-based assay is to measure the potency and selectivity of synthesized PARP inhibitors in suppressing hydrogen peroxide-induced PARylation in cells with and without PARP1 expression. Several cell lines were used in this assay. HeLa cells (wide-type with PARP1 gene) were purchased from ATCC. The HAP1 cell line without the PARP1 gene (#HZGHC003943c006) was purchased from Horizon Discovery. Cells were cultured using complete medium containing 10% fetal bovine serum. One day before the assay, cells were seeded in 96-well plates at the density of 20,000 cells per well in 80 uL complete medium. Compounds were dissolved using DMSO and diluted to the working concentrations using complete medium. Cells were pre-treated with compounds for 60 min and then stimulated with 10 mM hydrogen peroxide for 15 min. After stimulation, cells were immediately fixed using ice-cold methanol for 20 min. After fixation, cells were washed using 1×PBST buffer for 3 times, 5 min each time, to eliminate residual methanol. Cells were blocked for 1 h at room temperature in blocking buffer (10% goat serum, 1% BSA, 0.1% Triton X-100 in PBST). Primary antibody was diluted in blocking buffer at 50 uL per well. Cells were incubated with the primary antibody (Adipogen, AG-20T-0001-M001, 1:300) at 4° C. for 18 h. The wells were then washed using 1×PBST for 3 times, 5 min each time. IRDye® 680RD Goat anti-Mouse IgG (H+L) secondary antibody was diluted at 1/1000 using the diluent buffer and added at 50 uL per well. Secondary antibody incubation was for 1 h at room temperature. Cells were then washed using 1×PBST for 3 times, 5 min each time. The signal was detected and analyzed using LI-COR Odyssey DLx Imaging system. Data were collected and further processed using GraphPad Prism for IC50 estimation.

T1 sequence (P09874 whole entry): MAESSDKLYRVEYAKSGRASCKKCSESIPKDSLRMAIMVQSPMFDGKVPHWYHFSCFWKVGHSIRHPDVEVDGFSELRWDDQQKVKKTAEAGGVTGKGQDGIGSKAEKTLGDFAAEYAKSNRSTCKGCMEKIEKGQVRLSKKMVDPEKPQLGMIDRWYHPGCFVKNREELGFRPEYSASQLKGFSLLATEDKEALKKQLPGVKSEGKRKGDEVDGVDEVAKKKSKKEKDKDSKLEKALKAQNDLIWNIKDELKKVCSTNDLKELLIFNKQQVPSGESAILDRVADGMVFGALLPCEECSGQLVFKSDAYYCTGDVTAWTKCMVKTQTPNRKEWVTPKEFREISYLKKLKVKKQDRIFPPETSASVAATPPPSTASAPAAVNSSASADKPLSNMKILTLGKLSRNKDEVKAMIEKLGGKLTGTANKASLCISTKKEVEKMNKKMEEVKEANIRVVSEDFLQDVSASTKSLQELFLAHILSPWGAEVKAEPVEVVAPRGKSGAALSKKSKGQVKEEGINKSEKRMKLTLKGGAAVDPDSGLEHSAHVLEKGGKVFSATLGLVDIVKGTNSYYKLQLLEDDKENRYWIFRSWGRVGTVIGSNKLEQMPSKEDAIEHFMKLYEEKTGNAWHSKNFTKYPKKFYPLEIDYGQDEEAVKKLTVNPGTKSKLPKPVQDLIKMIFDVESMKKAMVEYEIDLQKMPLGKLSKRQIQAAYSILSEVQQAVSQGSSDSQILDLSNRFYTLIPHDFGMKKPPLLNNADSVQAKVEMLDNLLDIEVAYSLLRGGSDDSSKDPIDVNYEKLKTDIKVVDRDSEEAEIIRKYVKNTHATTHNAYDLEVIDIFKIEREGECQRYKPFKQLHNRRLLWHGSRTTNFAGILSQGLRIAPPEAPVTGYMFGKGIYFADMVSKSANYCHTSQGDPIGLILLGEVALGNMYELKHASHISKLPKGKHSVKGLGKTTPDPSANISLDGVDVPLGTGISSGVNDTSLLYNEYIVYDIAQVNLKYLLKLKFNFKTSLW

Row | SMILES | IC50 [nM]
1 | CCN1C(=O)Nc2c(F)c(CN3CC(Oc4ccc(C(=O)NC)nc4)C3)cc3ncnc1c23 [Example 1, 5-((1-((3-Ethyl-9-fluoro-2-oxo-2,3-dihydro-1H-pyrimido[4,5,6-de]quinazolin-8-yl)methyl)azetidin-3-yl)oxy)-N-methylpicolinamide] | ≤ 10
2 | CCN1C(=O)Nc2cc(CN3CC(Oc4ccc(C(=O)NC)nc4)C3)cc3ncnc1c23 [Example 3, 5-((1-((3-Ethyl-2-oxo-2,3-dihydro-1H-pyrimido[4,5,6-de]quinazolin-8-yl)methyl)azetidin-3-yl)oxy)-N-methylpicolinamide] | ≤ 10
3 | CCN1C(=O)Nc2cc(CN3CC(Oc4ccc(C(=O)NC5CC5)nc4)C3)cc3ncnc1c23 [Example 5, N-cyclopropyl-5-((1-((3-ethyl-2-oxo-2,3-dihydro-1H-pyrimido[4,5,6-de]quinazolin-8-yl)methyl)azetidin-3-yl)oxy)picolinamide] | ≤ 10
4 | CCN1C(=O)Nc2cc(CN3CC(Oc4ccc(C(=O)NC)nc4C)C3)cc3ncnc1c23 [Example 9, 5-((1-((3-Ethyl-2-oxo-2,3-dihydro-1H-pyrimido[4,5,6-de]quinazolin-8-yl)methyl)azetidin-3-yl)oxy)-N,6-dimethylpicolinamide] | ≤ 10

Now from value to compound:

Row | IC50 [nM] | SMILES
5 | ≤ 10 | CCN1C(=O)Nc2c(F)c(CN3C[C@H](Oc4ccc(C(=O)NC)nc4)[C@H]3C)cc3ncnc1c23 [Example 2, 5-(((2R,3S)-1-((3-ethyl-9-fluoro-2-oxo-2,3-dihydro-1H-pyrimido[4,5,6-de]quinazolin-8-yl)methyl)-2-methylazetidin-3-yl)oxy)-N-methylpicolinamide]
6 | ≤ 10 | CCN1C(=O)Nc2cc(CN3C[C@H](Oc4ccc(C(=O)NC)nc4)[C@H]3C)cc3ncnc1c23 [Example 4, 5-(((2R,3S)-1-((3-ethyl-2-oxo-2,3-dihydro-1H-pyrimido[4,5,6-de]quinazolin-8-yl)methyl)-2-methylazetidin-3-yl)oxy)-N-methylpicolinamide]
7 | ≤ 10 | CCN1C(=O)Nc2cc(CN3C[C@H](Oc4ccc(C(=O)NC5CC5)nc4)[C@H]3C)cc3ncnc1c23 [Example 6, N-cyclopropyl-5-(((2R,3S)-1-((3-ethyl-2-oxo-2,3-dihydro-1H-pyrimido[4,5,6-de]quinazolin-8-yl)methyl)-2-methylazetidin-3-yl)oxy)picolinamide]
8 | ≤ 10 | CCN1C(=O)Nc2c(F)c(CN3CC(Oc4ccc(C(=O)NC5CC5)nc4)C3)cc3ncnc1c23 [Example 7, N-cyclopropyl-5-((1-((3-ethyl-9-fluoro-2-oxo-2,3-dihydro-1H-pyrimido[4,5,6-de]quinazolin-8-yl)methyl)azetidin-3-yl)oxy)picolinamide]
9 | ≤ 10 | CCN1C(=O)Nc2c(F)c(CN3C[C@H](Oc4ccc(C(=O)NC5CC5)nc4)[C@H]3C)cc3ncnc1c23 [Example 8, N-cyclopropyl-5-(((2R,3S)-1-((3-ethyl-9-fluoro-2-oxo-2,3-dihydro-1H-pyrimido[4,5,6-de]quinazolin-8-yl)methyl)-2-methylazetidin-3-yl)oxy)picolinamide]
10 | ≤ 10 | CCN1C(=O)Nc2cc(CN3C[C@H](Oc4ccc(C(=O)NC)nc4C)[C@H]3C)cc3ncnc1c23 [Example 10, 5-(((2R,3S)-1-((3-ethyl-2-oxo-2,3-dihydro-1H-pyrimido[4,5,6-de]quinazolin-8-yl)methyl)-2-methylazetidin-3-yl)oxy)-N,6-dimethylpicolinamide]
